BindingDB's records for doi:10.1021/cb700025j (Burnham Institute for Medical Research, 2007)
pIC50, pKd: −log10 of the molar value.

Legend:
[1] = target: T1, Mitogen-activated protein kinase 14 (Homo sapiens, UniProt Q16539); test: Kinase Activity Assay; conditions: pH 7
Description: In vitro kinase activity and selectivity was determined by using SelectScreen kinase profiling Z'-LYTE assay from Invitrogen.

[2] = target: T1, Mitogen-activated protein kinase 14; test: Fluorescence-Based Competition Assay; conditions: pH 7
Source text: The competitive binding between test compounds and a fluorescence p38 alpha inhibitor, SK&F 86002.

T1 sequence (Q16539 whole entry): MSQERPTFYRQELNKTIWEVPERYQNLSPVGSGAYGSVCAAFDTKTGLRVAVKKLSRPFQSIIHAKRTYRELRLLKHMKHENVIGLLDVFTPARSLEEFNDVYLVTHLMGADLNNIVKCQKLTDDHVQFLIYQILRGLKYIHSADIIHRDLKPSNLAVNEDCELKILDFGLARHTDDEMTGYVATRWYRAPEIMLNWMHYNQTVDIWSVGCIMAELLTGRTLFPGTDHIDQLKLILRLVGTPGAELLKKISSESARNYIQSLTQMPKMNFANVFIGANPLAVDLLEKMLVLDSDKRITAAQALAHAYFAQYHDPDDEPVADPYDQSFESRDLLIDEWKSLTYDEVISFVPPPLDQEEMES

A pIC50 [1] of 6.15, a pKd [1] of 6.12 and a pIC50 [2] of 5.25 were found for `C=C1SN(C)c2ccc(S(=O)(=O)Nc3ccccc3N3CCCCC3)cc21` [BI-12H11] in this work.
